{"source": "paper PMC4235314", "about": "(Scientific Reports, 2014)", "molecules": {"B1": {"name": "lmrCD oligo (33-bp promoter fragment) (dsDNA)", "DNA 1": "CAATTTAATGTAAAGTAGTTTACATTATTTAAC", "DNA 2": "GTTAAATAATGTAAACTACTTTACATTAAATTG"}}, "key": {"[1]": {"molecular_target": "T1, LmrR (Lactococcus cremoris, UniProt A2RI36)", "T1 construct": "gene llmg_0323; full-length, synthetic codon-optimised gene in pET28b (NcoI/XhoI), C-terminal His6-tag kept, E. coli BL21(DE3), homodimer", "assay": "SPR (Biacore […], LmrR on NTA chip), kinetic […] Langmuir fit", "assay_type": "binding", "details": "pH 7.4, 25 C, 150 mM NaCl, 50 uM EDTA, 0.005% P-20; dimeric central pore, 1:1 stoichiometry"}, "[2]": {"molecular_target": "T1, LmrR", "assay": "SPR (Biacore […], LmrR on NTA chip), equilibrium one-site fit", "assay_type": "binding", "details": "pH 7.4, 25 C, 150 mM NaCl, 50 uM EDTA, 0.005% P-20; dimeric central pore, 1:1 stoichiometry"}, "[3]": {"molecular_target": "T2, LmrR (Lactococcus lactis, UniProt A2RI36 1-116)", "T2 sequence": "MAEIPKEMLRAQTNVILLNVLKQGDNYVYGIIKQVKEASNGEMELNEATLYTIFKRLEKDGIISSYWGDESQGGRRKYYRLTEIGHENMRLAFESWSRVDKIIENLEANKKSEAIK", "assay": "SPR; LmrR immobilised on NTA chip; 1:1 Langmuir global fit; text states only 'μM affinity', number in figure; SPR: 10 mM HEPES pH 7.4, 150 mM NaCl, 50 uM EDTA, 0.005% surfactant P-20, 25 C (described for compounds); NMR: 10 mM NaPi pH 6.8, 100 mM NaCl, 298 K"}, "[4]": {"molecular_target": "T2, LmrR", "assay": "NMR; 1H-13C HMQC titration, Ile d1 CSPs; low-field shift of Ile-62 d1 13C; SPR: 10 mM HEPES pH 7.4, 150 mM NaCl, 50 uM EDTA, 0.005% surfactant P-20, 25 C (described for compounds); NMR: 10 mM NaPi pH 6.8, 100 mM NaCl, 298 K"}}}
{"molecule": "CCOc1ccc(-c2nc3ccc(-c4nc5ccc(N6CCN(C)CC6)cc5[nH]4)cc3[nH]2)cc1", "note": "[Hoechst 33342]", "values": [{"measurement": "KD", "setting": "[1]", "result": "SPR analyses indicated that these compounds bind to LmrR with various affinities"}]}
{"molecule": "COc1cccc2c1C(=O)c1c(O)c3c(c(O)c1C2=O)C[C@@](O)(C(C)=O)C[C@@H]3O[C@H]1C[C@H](N)[C@H](O)[C@H](C)O1", "note": "[daunomycin]", "values": [{"measurement": "KD", "setting": "[2]", "result": "The KD values for H33342 and daunomycin were consistent with those previously reported"}]}
{"molecule": "CC[n+]1c(-c2ccccc2)c2cc(N)ccc2c2ccc(N)cc21", "note": "[ethidium]", "values": [{"measurement": "KD", "setting": "[2]", "result": "SPR analyses indicated that these compounds bind to LmrR with various affinities"}]}
{"molecule": "CCN=c1cc2oc3cc(NCC)c(C)cc3c(-c3ccccc3C(=O)OCC)c-2cc1C", "note": "[rhodamine 6G]", "values": [{"measurement": "KD", "setting": "[2]", "result": "SPR analyses indicated that these compounds bind to LmrR with various affinities"}]}
{"molecule": "B1", "values": [{"measurement": "binding result", "setting": "[3]", "result": "binds"}, {"measurement": "binding result", "setting": "[4]", "result": "binds"}]}
